Values of other authors as cited in patent US20220062352A1, “COMPOSITIONS FOR THE TREATMENT OF CONDITIONS” (Demata Therapeutics, LLC, priority 2018, published 2022).

Test system: acne vulgaris subjects

CC(=O)N[C@H]1C(O)O[C@H](CO)[C@@H](O)[C@@H]1O (stereo partly drawn) [NAG, N-acetyl-D-glucosamine]
tolerability versus 10% benzoyl peroxide (acne vulgaris subjects): better tolerated by the subjects than 10% benzoyl peroxide | number of acne lesions (over an 8-week period): quickly reduced the number of acne lesions
